# Test results published in US20080032998A1, “Pyrazolopyrimidines, a process for their preparation and their use as medicine” (MERZ PHARMA GMBH & CO. KGAA, priority 2006, published 2008).
# Experiments:
# [1] = target: T1, mGluR5 receptors (Rattus norvegicus, UniProt P31424); assay: Cytosolic calcium studies with astrocytes (astrocyte culture test, FLIPR); format: cell-based; conditions: rat primary astrocytes, L-quisqualate 100 nM; read-out: mGluR5_FLIPR_r_rpA IC50
# T1 construct: endogenous in cells; host or cells: primary astrocytes from neocortex of Sprague-Dawley rat pups
# Experimental: Primary astrocyte cultures are prepared from cortices of newborn rats as described by Booher and Sensenbrenner (1972, Neurobiology 2(3):97-105). Briefly, Sprague-Dawley rat pups (2-4 d old) are decapitated and neocortices are dissected, disintegrated with a nylon filter (pore size 80 μm) and carefully triturated. […]
# The increase of cytosolic calcium after stimulation with the mGluR5 agonist L-quisqualate is measured using a fluorometric imaging plate reader (FLIPR) and the Ca-Kit (both Molecular Devices). […] Subsequently, plates are transferred to FLIPR to detect calcium increase with the addition of L-quisqualate (100 nM) measured as relative fluorescence units (RFU). […]
# (§1) The fluorescence signal increase after addition of agonist reflects the increase of cytosolic calcium. […] The mean of replicated temporal data (n=3-5) is calculated and used for graphical representation. For the evaluation of the pharmacology, the calcium changes in response to different concentrations of agonist or antagonist are determined using a maximum minus minimum (MaxMin) calculation.
# All responses (RFU-values) are determined as percentage of control (=maximum response). EC50 and IC50 are calculated according the logistic equation using GraFit 5.0 (Erithacus Software, GB) or Prism 4.0 (GraphPad Software, USA).
# [2] = target: T2, metabotropic glutamate receptor (mGluR5) (Homo sapiens, UniProt P41594); assay: Cytosolic calcium studies with stably transfected cells (FLIPR); format: cell-based; set-up: expressed in transfected cells; host or cells: CHO-K1 cells (IPTG-inducible expression); conditions: CHO-K1 cells with human mGluR5, agonist L-quisqualic acid; read-out: mGluR5_FLIPR_h_CHONAM_IC50
# Experimental: Cytosolic Calcium Studies with Stably Transfected Cells
# Chinese hamster ovary cells (CHO-K1 cells), stably transfected for inducible expression of a human metabotropic glutamate receptor mGluR5, are seeded into black clear bottom 96 well plates at a density of 35.000 cells per well. The standard growth medium used (Dulbecco's modified Eagle Medium, DMEM plus L-proline) contains the appropriate inducer isopropyl-β-D-thiogalactopyranosid (IPTG) to achieve optimal receptor expression. One day after seeding the growth medium is exchanged for reconstituted Ca-Kit (Molecular Devices, USA) and incubated for one hour. […] Agonistic compounds to the receptor elicit increases in cytosolic calcium which can be measured as increases in fluorescence signals by use of a fluorescence imaging plate reader (Molecular Devices).
# as §1
# All responses (RFU-values) are determined as percentage of control (=maximum response). […]
# [3] = target: T3, transmembrane allosteric modulatory sites of mGluR5 receptors in cortical membranes (Rattus norvegicus, UniProt P31424); assay: [3H]-MPEP binding assay in rat cortical membranes; conditions: [3H]-MPEP 5 nM, read-out: mGluR5_MPEP rCTX_IC50
# T3 construct: from tissue; host or cells: rat brain cortex membranes (male Sprague-Dawley)
# Experimental: Male Sprague-Dawley rats (200-250 g) are decapitated and their brains are removed rapidly. The cortex is dissected and homogenized in 20 volumes of ice-cold 0.32 M sucrose using a glass-Teflon homogenizer. The homogenate is centrifuged at 1000×g for 10 minutes. The pellet is discarded and the supernatant centrifuged at 20,000×g for 20 minutes. The resulting pellet is re-suspended in 20 volumes of distilled water and centrifuged for 20 minutes at 8000×g. Then the supernatant and the buffy coat are centrifuged at 48,000×g for 20 minutes in the presence of 50 mM Tris-HCl, pH 8.0. The pellet is then re-suspended and centrifuged two to three more times at 48,000×g for 20 minutes in the presence of 50 mM Tris-HCl, pH 8.0. All centrifugation steps are carried out at 4° C. After resuspension in 5 volumes of 50 mM Tris-HCl, pH 8.0 the membrane suspension is frozen rapidly at −80° C. […]
# Alternatively, assays are performed with [^3H]-MMPEP (2-(3-methoxyphenylethynyl)-6-methylpyridine hydrochloride) as radioligand. […] Following separation and rinse, the filters are placed into scintillation liquid (5 ml Ultima Gold, Perkin Elmer, Germany) and radioactivity retained on the filters is determined with a conventional liquid scintillation counter (Canberra Packard, Germany).
# [4] = target: T2, metabotropic glutamate receptor (mGluR5); assay: Activity as mGluR5 modulator (prior-art compounds, method not given)
# T2 sequence (P41594 21-1212): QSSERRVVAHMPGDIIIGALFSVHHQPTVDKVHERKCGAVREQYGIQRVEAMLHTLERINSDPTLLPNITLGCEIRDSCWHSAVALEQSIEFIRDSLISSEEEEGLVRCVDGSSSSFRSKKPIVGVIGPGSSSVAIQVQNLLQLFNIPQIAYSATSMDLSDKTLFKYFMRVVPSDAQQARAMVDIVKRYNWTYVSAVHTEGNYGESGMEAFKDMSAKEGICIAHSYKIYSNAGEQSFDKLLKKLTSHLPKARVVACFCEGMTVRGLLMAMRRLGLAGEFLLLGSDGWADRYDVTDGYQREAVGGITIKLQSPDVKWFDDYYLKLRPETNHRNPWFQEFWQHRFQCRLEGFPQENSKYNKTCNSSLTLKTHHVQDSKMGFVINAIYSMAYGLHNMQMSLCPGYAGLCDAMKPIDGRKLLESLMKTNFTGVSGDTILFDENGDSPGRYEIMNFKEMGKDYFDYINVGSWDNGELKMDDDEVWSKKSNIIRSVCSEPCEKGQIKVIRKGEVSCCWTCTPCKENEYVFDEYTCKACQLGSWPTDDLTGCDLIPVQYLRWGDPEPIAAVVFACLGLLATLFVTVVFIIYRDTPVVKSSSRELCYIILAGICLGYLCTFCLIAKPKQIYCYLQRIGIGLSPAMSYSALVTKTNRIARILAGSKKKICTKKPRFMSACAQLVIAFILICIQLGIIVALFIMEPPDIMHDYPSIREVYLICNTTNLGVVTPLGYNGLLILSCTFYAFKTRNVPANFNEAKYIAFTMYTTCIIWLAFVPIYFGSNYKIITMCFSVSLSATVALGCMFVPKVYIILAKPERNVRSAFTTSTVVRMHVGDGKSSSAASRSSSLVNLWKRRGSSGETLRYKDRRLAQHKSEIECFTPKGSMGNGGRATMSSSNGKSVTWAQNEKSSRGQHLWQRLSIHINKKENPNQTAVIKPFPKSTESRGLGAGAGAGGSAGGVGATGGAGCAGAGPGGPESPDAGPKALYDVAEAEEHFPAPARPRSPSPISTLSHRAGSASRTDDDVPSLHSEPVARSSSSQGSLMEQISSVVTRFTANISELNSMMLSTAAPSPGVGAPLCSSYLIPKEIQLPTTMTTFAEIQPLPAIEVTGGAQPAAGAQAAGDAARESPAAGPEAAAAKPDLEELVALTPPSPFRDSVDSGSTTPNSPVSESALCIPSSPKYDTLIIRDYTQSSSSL
# T1 sequence (P31424 21-1203): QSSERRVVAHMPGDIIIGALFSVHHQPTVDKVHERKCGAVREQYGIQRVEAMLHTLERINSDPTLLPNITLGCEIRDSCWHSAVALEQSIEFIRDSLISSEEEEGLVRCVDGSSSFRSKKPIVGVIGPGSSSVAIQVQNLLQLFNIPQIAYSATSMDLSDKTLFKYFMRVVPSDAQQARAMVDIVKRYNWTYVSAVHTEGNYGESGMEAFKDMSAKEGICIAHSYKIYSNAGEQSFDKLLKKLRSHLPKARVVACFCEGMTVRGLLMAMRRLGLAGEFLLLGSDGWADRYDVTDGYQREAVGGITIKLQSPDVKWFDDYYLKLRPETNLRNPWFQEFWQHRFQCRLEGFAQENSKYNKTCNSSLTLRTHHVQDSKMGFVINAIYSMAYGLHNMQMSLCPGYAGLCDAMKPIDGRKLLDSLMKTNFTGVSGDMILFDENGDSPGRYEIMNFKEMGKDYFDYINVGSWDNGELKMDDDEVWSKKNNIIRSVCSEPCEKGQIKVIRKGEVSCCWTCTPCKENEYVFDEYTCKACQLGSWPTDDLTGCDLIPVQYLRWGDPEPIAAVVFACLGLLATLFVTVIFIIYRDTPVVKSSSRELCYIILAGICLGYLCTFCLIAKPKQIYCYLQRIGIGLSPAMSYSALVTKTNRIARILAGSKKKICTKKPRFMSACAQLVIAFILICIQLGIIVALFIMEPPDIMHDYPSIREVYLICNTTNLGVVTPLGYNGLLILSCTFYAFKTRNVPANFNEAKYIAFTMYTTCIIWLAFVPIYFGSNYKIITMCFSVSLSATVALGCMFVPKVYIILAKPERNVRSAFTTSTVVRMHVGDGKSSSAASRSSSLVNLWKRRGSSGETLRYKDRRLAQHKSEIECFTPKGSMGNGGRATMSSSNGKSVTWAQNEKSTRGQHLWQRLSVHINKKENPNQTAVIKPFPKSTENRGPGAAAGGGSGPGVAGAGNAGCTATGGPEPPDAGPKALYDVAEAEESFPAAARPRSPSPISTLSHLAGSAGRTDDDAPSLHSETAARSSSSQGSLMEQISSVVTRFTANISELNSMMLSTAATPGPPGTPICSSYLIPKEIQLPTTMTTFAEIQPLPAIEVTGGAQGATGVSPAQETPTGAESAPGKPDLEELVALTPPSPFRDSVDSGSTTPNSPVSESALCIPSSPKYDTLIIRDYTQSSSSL
# T3 sequence (P31424 21-1203): as above
IC50 [1],IC50 [2],IC50 [3],activity as metabotropic glutamate receptor (mGluR5) modulator [4],selectivity [4],SMILES
80 nM,493 nM,250 nM,–,–,"O=C(c1cc2ncc(Br)cn2n1)N1CC=C(c2ccccc2)CC1 [Example 1, (6-Bromo-pyrazolo[1,5-a]pyrimidin-2-yl)-(4-phenyl-3,6-dihydro-2H-pyridin-1-yl)-methanone]"
–,–,–,only a limited activity,not selective,"O=C(c1cc2ncc(Br)cn2n1)N1CCc2ccccc2C1 [M, (6-Bromo-pyrazolo[1,5-a]pyrimidin-2-yl)-(1,2,3,4-tetrahydro-isoquinolin-2-yl)-methanon]"
